According to patent US12560588B2, “High-efficiency screening method for RNA-targeting drugs using nanopores” (KOREA RESEARCH INSTITUTE OF BIOSCIENCE AND BIOTECHNOLOGY, priority 2020, dated 2026):

Legend:
ARS = test: 1D CPMG ligand-observed NMR; conditions: absence vs presence of ARS
5′L-iav-RNA = assay type: binding, influenza A virus
3′L-iav-RNA = assay type: binding, influenza A virus
[1] = system: adenine-sensing riboswitch (ARS); test: α-hemolysin nanopore measurement of ARS with ligand; assay type: binding, Vibrio vulnificus; conditions: for dwell time relative to free ARS: type-II translocation event, individual compounds
Protocol: RNAs were synthesized by Integrated DNA Technologies (Coralville, IA, USA). All RNAs were dialyzed against 10 mM potassium phosphate (pH 6.2) buffer for at least 12 hours. After heating RNAs at 95° C. for 5 minutes, it was cooled quickly in the ice and annealed. The nanopore experiment was performed at RNA concentration of 10 to 500 nm. α-hemolysin (α-HL) protein was purchased from List Biological Laboratories Inc. (CAMPBELL, CA, USA). 1,2-diphytanoylsn-glycero-3-phosphocholine(DPhPC) was purchased from Avanti Polar Lipids (Alabaster, Al, USA).
Specifically, in the buffer containing 10 mM potassium phosphate (pH 6.2), 2 mM MgCl2 and 1M KCl, free ARS or ARS-adenine complex was added to the cis face of a lipid bilayer with a single α-HL nanopore. If the voltage of (+) 100 mV is applied on the nanopore, the free ARS or the ARS-adenine complex is driven by electrophoresis to block the ion current. The nanopore events of the free ARS and ARS-adenine complex were statistically analyzed (a to c in FIG. 2).
The average I/I0 value of level 1 (III1) of the type-II event is 0.45, which corresponds to about 50% of level 2 (III2). After separating the types I and II nanopore events of the complex, each type of event was statistically analyzed. The type I and II events of the ARS-adenine complex is different in the average value and dwell time of I/I0 ((b) to (c) in FIG. 3).

[2] = system: PreQ1-sensing riboswitch (PreQ1 rs); test: α-hemolysin nanopore measurement of PreQ1 rs with PreQ1; assay type: binding
Protocol: The PreQ1 rs is synthesized by Integrated DNA Technologies (Coralville, IA, USA). The PreQ1 rs used in the test was designed by adding GG sequences to the 5′ end of the 34nt basic aptamer sequences for the ease of secondary verification (NMR analysis, etc.) of the riboswitch structural change by binding of the PreQ1 ligand. The PreQ1 rs RNAs were dialyzed against 10 mM potassium phosphate (pH 6.2) buffer for at least 12 hours. After heating RNAs at 95° C. for 5 minutes, it was cooled quickly in the ice and annealed. All nanopore tests were performed at 500 nM concentration.
Specifically, in the buffer containing 10 mM potassium phosphate (pH 6.2) and 1M KCl, 500 nM of free PreQ1 rs was added to the cis face of a lipid bilayer with the α-HL nanopore. It was observed that the PreQ1 rs was driven by electrophoresis to block the ion current if the (+) voltage was applied on the nanopore.
Since then, to confirm whether the interaction of ligands can be detected at a single molecule level, the PreQ1 rs-PreQ1 complex was added to the cis face of the lipid bilayer with the nanopore in the buffer containing 10 mm phosphate (pH 6.2) and 1M KCl. When the (+) voltage is applied to the nanopore, the ion current is blocked as the PreQ1 rs-PreQ1 complex enters the nanopore by electrophoresis. In the current blockade event of the PreQ1 rs-PreQ1 complex, both type A and type B events were observed, and active nanopore current traces were confirmed (FIG. 17, bottom panel).

TPP riboswitch (TRS) = assay type: binding
[3] = system: adenine-sensing riboswitch (ARS); test: 1D 1H NMR of ARS with adenine; conditions: high salt concentration (1M KCl)

Oc1cc(O)c2c(c1)O[C@H](c1ccc(O)c(O)c1)[C@H](O)C2 [(−)-epicatechin]
binding to ARS by 1D CPMG (ARS): non-binding

Nc1ncnc2c1ncn2[C@@H]1O[C@H](COP(=O)(O)OP(=O)(O)OP(=O)(O)O)[C@@H](O)[C@H]1O [ATP]
binding to ARS by 1D CPMG (ARS): non-binding

COc1cc2nc(N3CCNCC3)nc(N)c2cc1OC [DPQ, 6,7-dimethoxy-2-(1-piperazinyl)-4-quinazolinamine]
average nanopore dwell time (5′L-iav-RNA): 1.14 ms
dwell time (5′L-iav-RNA): 1.47 ms
nanopore average dwell time (3′L-iav-RNA): 9.52 ms

O=C(/C=C/c1ccc(O)c(O)c1)O[C@@H]1[C@H](O)C[C@@](O)(C(=O)O)C[C@H]1OC(=O)/C=C/c1ccc(O)c(O)c1 [NC1, 3,4-dicaffeoylquinic acid]
nanopore event type observed ([1]; ARS with ligand): types II translocation event
dwell time relative to free ARS [1]: more than twice
binding to ARS by 1D CPMG (ARS): definite binding

O=C(/C=C/c1ccc(O)c(O)c1)O[C@H]1[C@H](O)C[C@](O)(C(=O)O)C[C@H]1OC(=O)/C=C/c1ccc(O)c(O)c1 [NC2, 4,5-dicaffeoylquinic acid]
nanopore event type observed ([1]; ARS with ligand): types II translocation event
dwell time relative to free ARS [1]: more than twice
binding to ARS by 1D CPMG (ARS): definite binding

O=C(O)[C@H]1O[C@@H](Oc2cc(O)c3c(=O)cc(-c4ccc(O)c(O)c4)oc3c2)[C@H](O)[C@@H](O)[C@@H]1O [NC4, luteolin-7-glucuronide]
nanopore event type observed ([1]; ARS with ligand): types II translocation event
dwell time relative to free ARS [1]: more than twice
binding to ARS by 1D CPMG (ARS): definite binding

NCC1C=Nc2nc(N)[nH]c(=O)c21 (stereo not shown) [PreQ1, 7-aminomethyl-7-deazaguanine]
type A event rate ([2]; PreQ1 rs-PreQ1 complex): 26.5%
type B event rate ([2]; PreQ1 rs-PreQ1 complex): 73.5%
type B event rate increase versus free PreQ1 rs ([2]; ligand-bound state): about 1.5 times

Cc1ncc(C[n+]2csc(CCO[P@](=O)(O)OP(=O)(O)O)c2C)c(N)n1 [TPP, thiamine pyrophosphate]
average dwell time (TPP riboswitch (TRS)): 0.22 ms
dwell time of type-I event (TPP riboswitch (TRS)): 0.21 ms
dwell time of type-II event (TPP riboswitch (TRS)): 4.37 ms
type-II dwell time increase versus free TRS (TPP riboswitch (TRS)): 1.3 times
type-II event rate (TPP riboswitch (TRS)): 14.3%
type-II event rate increase versus free TRS (TPP riboswitch (TRS)): 1.6 times

Nc1ncnc2nc[nH]c12 [adenine]
nanopore event type observed ([1]; ARS with ligand): mixture of the type I and type-II events
average dwell time (td) ([1]; ARS with ligand, all events, +100 mV, 1M KCl): 0.63 ms
dwell time of the type-I event (tI) ([1]; ARS-adenine complex): 0.28 ms
dwell time of the type-II event (tII) ([1]; ARS-adenine complex): 2.14 ms
nanopore dwell time of the type-II event (tII) ([1]; adenine added to MIX-3): 2.52 ms
type-II dwell time relative to free ARS ([1]; adenine added to MIX-3): up to 6.6 times
type-II dwell time relative to the type-I event ([1]; adenine-bound ARS): 7.64 times
binding to ARS by imino proton peaks [3]: bound

NCCCS(=O)(=O)O [tramiprosate]
binding to ARS by 1D CPMG (ARS): non-binding

Neomycin
average nanopore dwell time (5′L-iav-RNA): 3.48 ms
dwell time increase versus free viral RNA (5′L-iav-RNA): about 8.1 times
